From patent US9802960B2 (MILLENNIUM PHARMACEUTICALS, INC., priority 2014, dated 2017)

target: Human VPS34 (Homo sapiens (Human), UniProt Q8NEB9); experiment: Human VPS34 enzyme assay (Adapta TR-FRET); format: biochemical; conditions: IC50 range class
Sequence (Q8NEB9 whole entry): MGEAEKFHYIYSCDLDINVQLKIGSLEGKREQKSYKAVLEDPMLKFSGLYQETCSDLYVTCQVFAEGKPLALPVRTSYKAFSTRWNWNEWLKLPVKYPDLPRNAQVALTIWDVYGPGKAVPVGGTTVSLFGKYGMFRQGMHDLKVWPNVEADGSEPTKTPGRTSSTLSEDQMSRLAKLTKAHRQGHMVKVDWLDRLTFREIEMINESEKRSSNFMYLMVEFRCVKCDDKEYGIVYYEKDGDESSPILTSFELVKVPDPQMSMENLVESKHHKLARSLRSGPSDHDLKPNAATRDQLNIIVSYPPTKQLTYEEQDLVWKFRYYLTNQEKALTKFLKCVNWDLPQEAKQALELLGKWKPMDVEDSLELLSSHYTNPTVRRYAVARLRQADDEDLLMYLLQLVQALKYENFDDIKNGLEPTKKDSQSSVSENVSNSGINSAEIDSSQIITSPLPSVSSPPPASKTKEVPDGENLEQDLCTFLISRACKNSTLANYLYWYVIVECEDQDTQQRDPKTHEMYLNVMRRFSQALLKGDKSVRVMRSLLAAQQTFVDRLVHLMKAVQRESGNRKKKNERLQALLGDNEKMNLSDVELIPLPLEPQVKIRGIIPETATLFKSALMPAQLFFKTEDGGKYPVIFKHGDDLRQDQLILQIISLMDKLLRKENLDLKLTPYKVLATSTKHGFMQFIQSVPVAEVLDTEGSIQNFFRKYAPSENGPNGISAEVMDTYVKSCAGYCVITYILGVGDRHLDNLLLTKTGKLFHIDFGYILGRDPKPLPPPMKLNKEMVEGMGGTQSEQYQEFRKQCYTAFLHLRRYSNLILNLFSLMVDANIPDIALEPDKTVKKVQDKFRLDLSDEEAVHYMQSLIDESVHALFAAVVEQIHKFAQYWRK

Row | SMILES | IC50 [µM]
1 | CC(=O)Nc1cc(-c2cnc(N)c(S(=O)(=O)NC(C)C)c2)ccn1 [Compound I-7, N-[6-amino-5-(isopropylsulfamoyl)-3,4′-bipyridin-2′-yl]acetamide] | < 0.01
2 | CC(=O)Nc1cc(-c2cnc(N)c(S(=O)(=O)NCc3cccnc3)c2)ccn1 [Compound I-19, N-{6-amino-5-[(pyridin-3-ylmethyl)sulfamoyl]-3,4′-bipyridin-2′-yl}acetamide] | 0.05 to 0.1

same assay, conditions: compound concentration 1.11 μM; read-out: Percent Inhibition

Row | SMILES | inhibition at 1.11 µM [%]
3 | Cc1ncc(-c2ccnc(NC(=O)C3CC3(F)F)c2)cc1NS(=O)(=O)c1ccc(F)cc1F (racemic) [Compound I-16, (rac)-N-(5-{[(2,4-difluorophenyl)sulfonyl]amino}-6-methyl-3,4′-bipyridin-2′-yl)-2,2-difluorocyclopropanecarboxamide] | > 99
4 | CC(=O)Nc1cc(-c2cnc(C)c(N3CC(N(C)C)CS3(=O)=O)c2)ccn1 (single isomer, unassigned) [Compound I-496, N-(5-(4-(dimethylamino)-1,1-dioxidoisothiazolidin-2-yl)-6-methyl-[3,4′-bipyridin]-2′-yl)acetamide] | > 99
5 | CC(=O)Nc1cc(-c2cnc(C)c(N3CC(N(C)C)CS3(=O)=O)c2)ccn1 (single isomer, unassigned) [Compound I-497, (R or S)—N-(5-(4-(dimethylamino)-1,1-dioxidoisothiazolidin-2-yl)-6-methyl-[3,4′-bipyridin]-2′-yl)acetamide] | > 99
6 | CC(=O)Nc1cc(-c2cnc(C)c(NS(=O)(=O)c3ccc(C(F)(F)F)nc3)c2)ccn1 [Compound I-1, N-[6-methyl-5-({[6-(trifluoromethyl)pyridin-3-yl]sulfonyl}amino)-3,4′-bipyridin-2′-yl]acetamide] | > 99
7 | CC(=O)Nc1cc(-c2cnc3cnn(S(=O)(=O)C4CC4)c3c2)ccn1 [Compound I-2, N-{4-[1-(cyclopropylsulfonyl)-1H-pyrazolo[4,3-b]pyridin-6-yl]pyridin-2-yl}acetamide] | > 99
8 | CC(=O)Nc1cc(-c2cnc(N)c(S(=O)(=O)Cc3ccc4ccccc4c3)c2)ccn1 [Compound I-3] | 87
9 | Cc1cnc(NC(=O)C2CC2)cc1-c1cnc(C)c(NS(=O)(=O)c2ccc(F)cc2F)c1 [Compound I-4, N-(5-{[(2,4-difluorophenyl)sulfonyl]amino}-5′,6-dimethyl-3,4′-bipyridin-2′-yl)cyclopropanecarboxamide] | > 99
10 | CC(=O)Nc1cc(-c2cnc(N)c(S(=O)(=O)Cc3ccccc3)c2)ccn1 [Compound I-6, N-[6-amino-5-(benzylsulfonyl)-3,4′-bipyridin-2′-yl]acetamide] | > 99
11 | CC(=O)Nc1cc(-c2cnc(N)c(S(=O)(=O)NC(C)C)c2)ccn1 [Compound I-7, N-[6-amino-5-(isopropylsulfamoyl)-3,4′-bipyridin-2′-yl]acetamide] | > 99
12 | CC(=O)Nc1cc(-c2cncc(C(=O)C3CC3)c2)ccn1 [Compound I-8, N-[5-(cyclopropylcarbonyl)-3,4′-bipyridin-2′-yl]acetamide] | > 99
13 | CC(=O)Nc1cc(-c2cncc(S(=O)(=O)N3CCC(F)(F)CC3)c2)ccn1 [Compound I-9, N-{5-[(4,4-difluoropiperidin-1-yl)sulfonyl]-3,4′-bipyridin-2′-yl}acetamide] | > 99
14 | CC(=O)Nc1cc(-c2cnc(N)c(C(=O)N3CCCCC3)c2)ccn1 [Compound I-10, N-[6-amino-5-(piperidin-1-ylcarbonyl)-3,4′-bipyridin-2′-yl]acetamide] | > 99
15 | CC(=O)Nc1cc(-c2cnc(N)c(S(=O)(=O)NC34CC(C3)C4)c2)ccn1 [Compound I-11, N-[6-amino-5-(bicyclo[1.1.1]pent-1-ylsulfamoyl)-3,4′-bipyridin-2′-yl]acetamide] | > 99
16 | CC(=O)Nc1cc(-c2cncc(NS(=O)(=O)c3ccc(F)cc3F)c2)ccn1 [Compound I-12, N-(5-{[(2,4-difluorophenyl)sulfonyl]amino}-3,4′-bipyridin-2′-yl)acetamide] | > 99
17 | CC(=O)Nc1cc(-c2cncc(NC(=O)c3ccccc3)c2)ccn1 [Compound I-13, N-(2′-acetamido-3,4′-bipyridin-5-yl)benzamide] | 81
18 | CC(=O)Nc1cc(-c2cnc(N)c(C(=O)NCC3CC3)c2)ccn1 [Compound I-14, 2′-acetamido-6-amino-N-(cyclopropylmethyl)-3,4′-bipyridine-5-carboxamide] | > 99
19 | CC(=O)Nc1cc(-c2cnc(N)c(C(=O)N3CCCC3)c2)ccn1 [Compound I-15, N-[6-amino-5-(pyrrolidin-1-ylcarbonyl)-3,4′-bipyridin-2′-yl]acetamide] | > 99
20 | CC(=O)Nc1cc(-c2cnc3cc[nH]c3c2)ccn1 [Compound I-17, N-[4-(1H-pyrrolo[3,2-b]pyridin-6-yl)pyridin-2-yl]acetamide] | > 99
21 | CC(=O)Nc1cc(-c2cnc(C)c(NS(=O)(=O)c3cn(C)nc3C(F)(F)F)c2)ccn1 [Compound I-18, N-[6-methyl-5-({[1-methyl-3-(trifluoromethyl)-1H-pyrazol-4-yl]sulfonyl}amino)-3,4′-bipyridin-2′-yl]acetamide] | > 99
22 | CC(=O)Nc1cc(-c2cnc(N)c(S(=O)(=O)NCc3cccnc3)c2)ccn1 [Compound I-19, N-{6-amino-5-[(pyridin-3-ylmethyl)sulfamoyl]-3,4′-bipyridin-2′-yl}acetamide] | > 99
23 | CC(=O)Nc1cc(-c2cncc(N(C)S(C)(=O)=O)c2)ccn1 [Compound I-20, N-{5-[methyl(methylsulfonyl)amino]-3,4′-bipyridin-2′-yl}acetamide] | > 99

Row | SMILES | inhibition at 1.11 µM [%]
24 | CC(=O)Nc1cc(-c2cnc3c(c2)S(=O)(=O)N(C)CN3)ccn1 [Compound I-21, N-[4-(2-methyl-1,1-dioxido-3,4-dihydro-2H-pyrido[2,3-e][1,2,4]thiadiazin-7-yl)pyridin-2-yl]acetamide] | > 99
25 | CNc1ncc(-c2ccnc(NC(C)=O)c2)cc1C(=O)N(C)C [Compound I-22, 2′-acetamido-N,N-dimethyl-6-(methylamino)-3,4′-bipyridine-5-carboxamide] | > 99
26 | CC(=O)Nc1cc(-c2cnc3ccn(S(=O)(=O)c4ccccc4)c3c2)ccn1 [Compound I-23, N-{4-[1-(phenylsulfonyl)-1H-pyrrolo[3,2-b]pyridin-6-yl]pyridin-2-yl}acetamide] | > 99
27 | CC(=O)Nc1cc(-c2cnc(N)c(S(=O)(=O)N3CCOCC3)c2)ccn1 [Compound I-24, N-[6-amino-5-(morpholin-4-ylsulfonyl)-3,4′-bipyridin-2′-yl]acetamide] | > 99
28 | CC(=O)Nc1cc(-c2cnc(N(C)C)c(NS(=O)(=O)c3ccc(F)cc3F)c2)ccn1 [Compound I-25, N-[5-{[(2,4-diflurophenyl)sulfonyl]amino}-6-(dimethylamino)-3,4′-bipyridin-2′-yl]acetamide] | > 99
29 | CCN(c1cc(-c2ccnc(NC(C)=O)c2)cnc1C)S(=O)(=O)C1CC1 [Compound I-26, N-{5-[(cyclopropylsulfonyl)(ethyl)amino]-6-methyl-3,4′-bipyridin-2′-yl}acetamide] | > 99
30 | CCN(CC)C(=O)c1cc(-c2ccnc(NC(C)=O)c2)cnc1N [Compound I-27, 2′-acetamido-6-amino-N,N-diethyl-3,4′-bipyridine-5-carboxamide] | > 99
31 | CC(=O)Nc1cc(-c2cnc(C)c(NS(=O)(=O)c3cc(C)ccc3F)c2)ccn1 [Compound I-28, N-(5-{[(2-fluoro-5-methylphenyl)sulfonyl]amino}-6-methyl-3,4′-bipyridin-2′-yl)acetamide] | > 99
32 | CC(=O)Nc1cc(-c2cnc3c(c2)N(CC2CC2)S(=O)(=O)N3)ccn1 [Compound I-29, N-{4-[1-(cyclopropylmethyl)-2,2-dioxido-1,3-dihydro[1,2,5]thiadiazolo[3,4-b]pyridin-6-yl]pyridin-2-yl}acetamide] | > 99
33 | CC(=O)Nc1cc(-c2cnc(C)c(NS(=O)(=O)c3ccc(Cl)cc3Cl)c2)ccn1 [Compound I-30, N-(5-{[(2,4-dichlorophenyl)sulfonyl]amino}-6-methyl-3,4′-bipyridin-2′-yl)acetamide] | > 99
34 | CC(=O)Nc1cc(-c2cnc(C)c(NS(=O)(=O)N(C)C)c2)ccn1 [Compound I-32, N-{5-[(dimethylsulfamoyl)amino]-6-methyl-3,4′-bipyridin-2′-yl}acetamide] | > 99
35 | CC(=O)Nc1cc(-c2cnc3ccn(S(C)(=O)=O)c3c2)ccn1 [Compound I-33, N-{4-[1-(methylsulfonyl)-1H-pyrrolo[3,2-b]pyridin-6-yl]pyridin-2-yl}acetamide] | > 99
36 | COC(=O)Nc1cc(-c2cnc(N)c(S(=O)(=O)C(C)C)c2)ccn1 [Compound I-34, methyl[6-amino-5-(isopropylsulfonyl)-3,4′-bipyridin-2′-yl]carbamate] | > 99
37 | CC(=O)Nc1cc(-c2cnc(N)c(NCC3CC3)c2)ccn1 [Compound I-35, N-{6-amino-5-[(cyclopropylmethyl)amino]-3,4′-bipyridin-2′-yl}acetamide] | > 99
38 | COC(=O)Nc1cc(-c2cnc(N)c(S(=O)(=O)N3CCCC3)c2)ccn1 [Compound I-36, methyl[6-amino-5-(pyrrolidin-1-ylsulfonyl)-3,4′-bipyridin-2′-yl]carbamate] | > 99
39 | CC(=O)Nc1cc(-c2cnc(N)c(S(=O)(=O)N(C)c3ccccc3)c2)ccn1 [Compound I-37, N-{6-amino-5-[methyl(phenyl)sulfamoyl]-3,4′-bipyridin-2′-yl}acetamide] | > 99
40 | COC(=O)Nc1cc(-c2cnc3[nH]ncc3c2)ccn1 [Compound I-38, Methyl [4-(1H-pyrazolo[3,4-b]pyridin-5-yl)pyridin-2-yl]carbamate] | > 99
41 | COc1ncc(-c2ccnc(NC(C)=O)c2)cc1S(=O)(=O)Nc1ccccc1 [Compound I-39, N-[6-methoxy-5-(phenylsulfamoyl)-3,4′-bipyridin-2′-yl]acetamide] | > 99
42 | CC(=O)Nc1cc(-c2cnc3[nH]cc(S(=O)(=O)N(C)C)c3c2)ccn1 [Compound I-40, N-{4-[3-(dimethylsulfamoyl)-1H-pyrrolo[2,3-b]pyridin-5-yl]pyridin-2-yl}acetamide] | > 99
43 | CC(=O)Nc1cc(-c2cnc(C)c(NS(=O)(=O)c3ccc(F)cc3F)c2)ccn1 [Compound I-41, N-(5-{[(2,4-difluorophenyl)sulfonyl]amino}-6-methyl-3,4′-bipyridin-2′-yl)acetamide] | > 99
